# Key:
# [1] = target: human D2-long dopamine receptor (Homo sapiens (Human), UniProt P14416); experiment: Radioligand binding (125I-IABN competition), D2; conditions: HEK cell membranes expressing human D2-long
# Description: (§1) The affinities of the target compounds were determined using radioligand binding experiments. […] Competition curves were modeled for a single site. Data from competition dose-response curves were analyzed using Tablecurve program (Jandel). IC50 values were converted to equilibrium dissociation constants (Ki values) using the Cheng and Prusoff correction.
# [2] = target: human D3 dopamine receptor (Homo sapiens (Human), UniProt P35462); experiment: Radioligand binding (125I-IABN competition), D3; conditions: for Ki: 125I-IABN competition, HEK cell membranes expressing human D3; for D2/D3 (D3 selectivity ratio, D2 Ki/D3 Ki): calculated D2 Ki/D3 Ki
# Sequence of human D3 dopamine receptor (P35462 whole entry): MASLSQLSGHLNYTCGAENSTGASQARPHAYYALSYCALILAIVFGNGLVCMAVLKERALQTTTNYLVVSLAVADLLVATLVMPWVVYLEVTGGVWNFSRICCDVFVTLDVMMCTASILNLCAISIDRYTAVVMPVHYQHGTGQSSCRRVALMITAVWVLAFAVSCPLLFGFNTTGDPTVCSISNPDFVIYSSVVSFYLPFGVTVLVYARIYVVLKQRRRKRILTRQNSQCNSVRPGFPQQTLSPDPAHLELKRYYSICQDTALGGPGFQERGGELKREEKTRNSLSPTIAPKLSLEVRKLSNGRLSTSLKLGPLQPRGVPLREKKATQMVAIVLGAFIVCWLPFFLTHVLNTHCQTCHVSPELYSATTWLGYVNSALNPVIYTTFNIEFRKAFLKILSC
# Description: as §1
# Sequence of human D2-long dopamine receptor (P14416 whole entry): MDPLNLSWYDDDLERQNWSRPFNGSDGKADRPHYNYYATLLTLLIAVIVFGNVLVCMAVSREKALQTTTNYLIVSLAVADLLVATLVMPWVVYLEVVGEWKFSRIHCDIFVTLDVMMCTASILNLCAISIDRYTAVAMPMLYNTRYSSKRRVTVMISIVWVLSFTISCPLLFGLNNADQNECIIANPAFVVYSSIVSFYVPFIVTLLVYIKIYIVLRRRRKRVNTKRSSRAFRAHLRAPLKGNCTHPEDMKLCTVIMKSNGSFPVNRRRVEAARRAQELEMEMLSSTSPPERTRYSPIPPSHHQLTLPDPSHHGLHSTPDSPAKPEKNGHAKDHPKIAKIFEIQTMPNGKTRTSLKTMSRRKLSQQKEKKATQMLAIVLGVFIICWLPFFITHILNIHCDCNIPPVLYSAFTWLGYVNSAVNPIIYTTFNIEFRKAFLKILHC
Compound,Ki [1] [nM],Ki [2] [nM],"D2/D3 (D3 selectivity ratio, D2 Ki/D3 Ki) [2]"
"O=C(NCCCCN1CCN(c2ccnc3cc(Cl)ccc23)CC1)N1CCC(c2ccccc2)CC1 [Compound 85, N-(4-(4-(7-Chloroquinolin-4-yl)piperazin-1-yl)butyl)-4-phenylpiperidine-1-carboxamide]",2790 ± 942,87.9 ± 22.8,32
"CC(C)(C)c1nc(N2CCN(CCCCNC(=O)N3CCC(N4CCCCC4)CC3)CC2)cc(C(F)(F)F)n1 [Compound 75, N-(4-(4-(2-(tert-Butyl)-6-(trifluoromethyl)pyrimidin-4-yl)piperazin-1-yl)butyl)-[1,4′-bipiperidine]-1′-carboxamide]",59.3 ± 7.5,9.9 ± 1.7,6
"Cc1cc(N2CCN(CCCCNC(=O)N3CCN(S(=O)(=O)c4ccccc4)CC3)CC2)nc(C(C)(C)C)n1 [Compound 46, N-(4-(4-(2-(tert-Butyl)-6-methylpyrimidin-4-yl)piperazin-1-yl)butyl)-4-(phenylsulfonyl)piperazine-1-carboxamide]",906 ± 169,31.9 ± 7.2,28
"CC(C)(C)c1nc(N2CCN(CCCCNC(=O)N3CCN(c4cnccn4)CC3)CC2)cc(C(F)(F)F)n1 [Compound 33, N-(4-(4-(2-(tert-Butyl)-6-(trifluoromethyl)pyrimidin-4-yl)piperazin-1-yl)butyl)-4-(pyrazin-2-yl)piperazine-1-carboxamide]",463 ± 55.1,8.6 ± 1.8,54
"CC(C)(C)c1cc(N2CCN(CCCCNC(=O)N3CCN(c4ccccc4)CC3)CC2)cc(C(C)(C)C)c1 [Compound 86, N-(4-(4-(3,5-Di-tert-butylphenyl)piperazin-1-yl)butyl)-4-phenylpiperazine-1-carboxamide]",1850 ± 197,110 ± 11.6,17
"CC(C)(C)c1nc(C2CC2)cc(N2CCN(CCCCNC(=O)N3CCN(c4ccccc4)CC3)CC2)n1 [Compound 9, N-(4-(4-(2-(tert-Butyl)-6-cyclopropylpyrimidin-4-yl)piperazin-1-yl)butyl)-4-phenylpiperazine-1-carboxamide]",515 ± 59.6,15.1 ± 2.8,34
"O=C(NCCCCN1CCN(c2ccnc3cc(Cl)ccc23)CC1)N1CCN(c2ccccc2)CC1 [Compound 12, N-(4-(4-(7-Chloroquinolin-4-yl)piperazin-1-yl)butyl)-4-phenylpiperazine-1-carboxamide]",933 ± 91,26.9 ± 4.9,35
"O=C(NCCCCN1CCN(c2ccc3ccccc3n2)CC1)C1CCC(c2ccccc2)CC1 (centres unmarked) [Compound 106, 4-Phenyl-N-(4-(4-(quinolin-2-yl)piperazin-1-yl)butyl)cyclohexanecarboxamide]",3090 ± 768,62 ± 12.7,50
"O=C(NCCCCN1CCN(c2cc(C(F)(F)F)nc3ccccc23)CC1)N1CCC(c2ccccc2)CC1 [Compound 100, 4-Phenyl-N-(4-(4-(2-(trifluoromethyl)quinolin-4-yl)piperazin-1-yl)butyl)piperidine-1-carboxamide]",> 100000,5320 ± 2220,>18
"O=C(NCCCCN1CCN(c2cccc(C(F)(F)F)c2)CC1)N1CCN(c2ccccc2)CC1 [Compound 2, 4-Phenyl-N-(4-(4-(3-(trifluoromethyl)phenyl)piperazin-1-yl)butyl)piperazine-1-carboxamide]",303 ± 10.4,14.2 ± 2.9,21
"CC(C)(C)c1cc(N2CCN(CCCCNC(=O)N3CCN(S(=O)(=O)c4ccccc4)CC3)CC2)nc(C(C)(C)C)n1 [Compound 78, N-(4-(4-(2,6-Di-tert-butylpyrimidin-4-yl)piperazin-1-yl)butyl)-4-(phenylsulfonyl)piperazine-1-carboxamide]",448 ± 75.9,29 ± 4.8,15
"O=C(NCCCCN1CCN(c2cc(C(F)(F)F)nc3ccccc23)CC1)N1CCN(c2ccccc2)CC1 [Compound 99, 4-Phenyl-N-(4-(4-(2-(trifluoromethyl)quinolin-4-yl)piperazin-1-yl)butyl)piperazine-1-carboxamide]",7250 ± 754,299 ± 37.8,24
"CC(C)(C)c1nc(N2CCN(CCCCNC(=O)N3CCN(c4ccc(C(F)(F)F)cc4)CC3)CC2)cc(C(F)(F)F)n1 [Compound 28, N-(4-(4-(2-(tert-Butyl)-6-(trifluoromethyl)pyrimidin-4-yl)piperazin-1-yl)butyl)-4-(4-(trifluoromethyl)phenyl)piperazine-1-carboxamide]",428 ± 102,19.4 ± 4.8,22
"O=C(NCCCCN1CCN(c2ccc3ccccc3n2)CC1)N1CCN(c2ccccc2)CC1 [Compound 84, 4-Phenyl-N-(4-(4-(quinolin-2-yl)piperazin-1-yl)butyl)piperazine-1-carboxamide]",2610 ± 79.1,95.7 ± 14.6,27

# The remaining lines, values ahead:
Ki [1] [nM],Ki [2] [nM],"D2/D3 (D3 selectivity ratio, D2 Ki/D3 Ki) [2]",Compound
1180 ± 180,110 ± 21.6,11,"CC(C)(C)c1nc(N2CCN(CCCCNC(=O)N3CCc4[nH]c5ccccc5c4C3)CC2)cc(C(F)(F)F)n1 [Compound 89, N-(4-(4-(2-(tert-Butyl)-6-(trifluoromethyl)pyrimidin-4-yl)piperazin-1-yl)butyl)-3,4-dihydro-1H-pyrido[4,3-b]indole-2(5H)-carboxamide]"
530 ± 45,16.7 ± 4.4,32,"CC(C)(C)c1nc(N2CCN(CCCCNC(=O)N3CCN(Cc4ccccc4)CC3)CC2)cc(C(F)(F)F)n1 [Compound 36, 4-Benzyl-N-(4-(4-(2-(tert-butyl)-6-(trifluoromethyl)pyrimidin-4-yl)piperazin-1-yl)butyl)piperazine-1-carboxamide]"
738 ± 88.8,21.4 ± 3.4,34,"CC(C)(C)c1nc(N2CCN(CCCCNC(=O)N3CCN(c4ccccc4Cl)CC3)CC2)cc(C(F)(F)F)n1 [Compound 14, N-(4-(4-(2-(tert-Butyl)-6-(trifluoromethyl)pyrimidin-4-yl)piperazin-1-yl)butyl)-4-(2-chlorophenyl)piperazine-1-carboxamide]"
759 ± 97,24.6 ± 4.9,31,"CC(C)(C)c1nc(N2CCN(CCCCNC(=O)N3CCN(c4cccc(Cl)c4Cl)CC3)CC2)cc(C(F)(F)F)n1 [Compound 18, N-(4-(4-(2-(tert-Butyl)-6-(trifluoromethyl)pyrimidin-4-yl)piperazin-1-yl)butyl)-4-(2,3-dichlorophenyl)piperazine-1-carboxamide]"
1180 ± 265,29.9 ± 5.6,39,"Cc1cccc(N2CCN(C(=O)NCCCCN3CCN(c4cc(C(F)(F)F)nc(C(C)(C)C)n4)CC3)CC2)c1C [Compound 24, N-(4-(4-(2-(tert-Butyl)-6-(trifluoromethyl)pyrimidin-4-yl)piperazin-1-yl)butyl)-4-(2,3-dimethylphenyl)piperazine-1-carboxamide]"
1340 ± 166,128 ± 30.3,10,"Cc1ccc2[nH]c3c(c2c1)CN(C(=O)NCCCCN1CCN(c2cc(C(F)(F)F)nc(C(C)(C)C)n2)CC1)CC3 [Compound 90, N-(4-(4-(2-(tert-Butyl)-6-(trifluoromethyl)pyrimidin-4-yl)piperazin-1-yl)butyl)-8-methyl-3,4-dihydro-1H-pyrido[4,3-b]indole-2(5H)-carboxamide]"
337,35.6 ± 1.4,–,"CC(C)(C)c1nc(N2CCN(CCCCNC(=O)C3CCN(Cc4ccccc4)CC3)CC2)cc(C(F)(F)F)n1 [Compound 109, 1-Benzyl-N-(4-(4-(2-(tert-butyl)-6-(trifluoromethyl)pyrimidin-4-yl)piperazin-1-yl)butyl)piperidine-4-carboxamide]"
962,19.2,50,"CC(C)(C)c1nc(N2CCN(CCCCNC(=O)N3CCN(c4ccccc4)C(=O)C3)CC2)cc(C(F)(F)F)n1 [Compound 102, N-(4-(4-(2-(tert-Butyl)-6-(trifluoromethyl)pyrimidin-4-yl)piperazin-1-yl)butyl)-3-oxo-4-phenylpiperazine-1-carboxamide]"
6400 ± 1100,1020 ± 201,6,"Cc1nc(N2CCN(CCCCNC(=O)N3CCc4[nH]c5ccc(C(F)(F)F)cc5c4C3)CC2)cc(C(C)(C)C)n1 [Compound 98, N-(4-(4-(6-(tert-Butyl)-2-methylpyrimidin-4-yl)piperazin-1-yl)butyl)-8-(trifluoromethyl)-3,4-dihydro-1H-pyrido[4,3-b]indole-2(5H)-carboxamide]"
646 ± 1.5,2.3 ± 0.3,281,"CC(C)(C)c1nc(N2CCN(CCCCNC(=O)N3CCc4ccccc4CC3)CC2)cc(C(F)(F)F)n1 [Compound 42, N-(4-(4-(2-(tert-Butyl)-6-(trifluoromethyl)pyrimidin-4-yl)piperazin-1-yl)butyl)-4,5-dihydro-1H-benzo[d]azepine-3(2H)-carboxamide]"
621 ± 143,25.1 ± 5.5,25,"CC(C)(C)c1nc(N2CCN(CCCCNC(=O)N3CCN(c4ccc(-c5ccccc5)cc4)CC3)CC2)cc(C(F)(F)F)n1 [Compound 45, 4-([1,1′-Biphenyl]-4-yl)-N-(4-(4-(2-(tert-butyl)-6-(trifluoromethyl)pyrimidin-4-yl)piperazin-1-yl)butyl)piperazine-1-carboxamide]"
1050 ± 149,40.3 ± 7.2,26,"CC(C)(C)c1nc(N2CCN(CCCCNC(=O)N3CCc4[nH]c5ccc(C#N)cc5c4C3)CC2)cc(C(F)(F)F)n1 [Compound 54, N-(4-(4-(2-(tert-Butyl)-6-(trifluoromethyl)pyrimidin-4-yl)piperazin-1-yl)butyl)-8-cyano-3,4-dihydro-1H-pyrido[4,3-b]indole-2(5H)-carboxamide]"

# Source: US9598387B2 (Southern Research Institute, priority 2012, dated 2017)
